The AC50 is the midpoint of the concentration-response curve, whichever way the signal moves.

A value given as a limit tells only on which side of the number the result lay.

The assay concerns the target T1, POLγA:R309C (Homo sapiens, UniProt P54098, R309C).
T1 sequence (P54098 1-1239 R309C): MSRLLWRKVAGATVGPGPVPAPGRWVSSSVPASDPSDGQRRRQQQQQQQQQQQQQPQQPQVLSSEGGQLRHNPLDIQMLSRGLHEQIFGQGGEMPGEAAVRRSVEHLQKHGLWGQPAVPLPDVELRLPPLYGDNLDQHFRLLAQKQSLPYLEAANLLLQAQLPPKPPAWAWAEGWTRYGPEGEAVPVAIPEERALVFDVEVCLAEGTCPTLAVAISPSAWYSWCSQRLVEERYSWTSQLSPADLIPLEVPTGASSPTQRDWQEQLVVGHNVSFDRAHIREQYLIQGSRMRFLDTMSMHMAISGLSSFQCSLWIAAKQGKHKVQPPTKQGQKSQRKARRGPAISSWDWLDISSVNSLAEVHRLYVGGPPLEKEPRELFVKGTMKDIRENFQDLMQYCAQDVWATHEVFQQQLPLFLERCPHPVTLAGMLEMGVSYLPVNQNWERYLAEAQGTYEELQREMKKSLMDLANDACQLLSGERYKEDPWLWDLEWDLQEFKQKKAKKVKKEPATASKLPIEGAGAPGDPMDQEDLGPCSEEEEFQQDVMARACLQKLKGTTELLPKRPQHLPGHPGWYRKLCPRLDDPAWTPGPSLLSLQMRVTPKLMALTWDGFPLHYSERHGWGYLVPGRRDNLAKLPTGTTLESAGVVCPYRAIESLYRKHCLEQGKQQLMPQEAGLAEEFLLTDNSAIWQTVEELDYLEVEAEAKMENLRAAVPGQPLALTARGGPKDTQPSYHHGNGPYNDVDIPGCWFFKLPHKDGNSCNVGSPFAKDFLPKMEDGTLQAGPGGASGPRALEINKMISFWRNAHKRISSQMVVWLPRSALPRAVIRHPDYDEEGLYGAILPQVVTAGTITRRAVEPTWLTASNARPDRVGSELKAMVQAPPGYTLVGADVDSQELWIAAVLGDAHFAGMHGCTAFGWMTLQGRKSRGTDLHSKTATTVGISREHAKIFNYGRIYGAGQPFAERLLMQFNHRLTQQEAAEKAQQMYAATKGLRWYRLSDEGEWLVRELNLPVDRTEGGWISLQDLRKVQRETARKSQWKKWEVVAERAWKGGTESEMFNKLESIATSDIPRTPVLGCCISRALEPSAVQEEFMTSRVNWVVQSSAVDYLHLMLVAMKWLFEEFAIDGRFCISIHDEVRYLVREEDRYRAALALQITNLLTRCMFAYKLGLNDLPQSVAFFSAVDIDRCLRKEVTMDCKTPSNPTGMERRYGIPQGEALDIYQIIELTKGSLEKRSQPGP
T1 sequence (Q9UHN1 1-485 partner): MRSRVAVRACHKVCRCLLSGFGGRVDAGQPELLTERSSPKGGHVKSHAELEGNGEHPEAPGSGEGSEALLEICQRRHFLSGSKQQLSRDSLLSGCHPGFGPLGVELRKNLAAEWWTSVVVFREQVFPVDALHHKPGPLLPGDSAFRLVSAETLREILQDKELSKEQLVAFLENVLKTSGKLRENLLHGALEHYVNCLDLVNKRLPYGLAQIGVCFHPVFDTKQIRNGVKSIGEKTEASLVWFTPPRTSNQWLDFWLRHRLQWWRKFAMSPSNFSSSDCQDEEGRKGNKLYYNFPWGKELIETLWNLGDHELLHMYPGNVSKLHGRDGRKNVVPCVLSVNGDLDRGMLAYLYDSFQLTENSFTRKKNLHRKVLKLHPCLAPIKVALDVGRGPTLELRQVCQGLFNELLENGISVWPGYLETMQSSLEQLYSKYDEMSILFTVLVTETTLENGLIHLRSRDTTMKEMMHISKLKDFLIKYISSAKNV
Nature of the assay: DNA polymerization assay, POLγA:R309C mutant. The assay is classed as biochemical. The conditions noted are these: stimulation of polymerase activity, primed M13mp18 ssDNA, 37° C. 2 hours. As for the experimental part:
DNA Polymerization Assay to Monitor Effects on Human Wildtype POLγ and Four Disease-Causing Mutant Variants of Human POLγ.
The ability of small molecules to stimulate the polymerase activity of POLγ was analyzed in a quantitative fluorescence SYBR Green I assay with fluorescence intensity (FI) readout.
In the presence of dNTPs, wild type human POLγ and mutant derivatives thereof were incubated with single-stranded, circular M13mp18 ssDNA hybridized to a short DNA oligonucleotide that functions as a primer for initiation of DNA synthesis. POLγ and mutant derivatives thereof will extend the primer and use the M13mp18 molecule as a template to synthesize long stretches of double-stranded DNA. SYBR Green I, which is a double-stranded DNA-binding dye, was used to quantify formation of double-stranded DNA in the reaction. When bound to double-stranded DNA, SYBR Green I fluorescence increases by up to 100-fold.
The assay was performed in the 384-well plate format. Upon addition of compounds, changes in double-stranded DNA synthesis activity can be monitored by following effects on fluorescent intensity.
The reactions also contained the accessory POLγB subunit, and the human mitochondrial single-stranded DNA binding protein (mtSSB).
The DNA template mixture used in the assay contained 0.5 nM primed M13 mp18 ssDNA, 400 nM mtSSB, 0.1 mM Tris-HCl (pH 8.0), 0.1 mM dNTP, 10 mM MgCl2, 0.1 mg/mL BSA, 1 mM TCEP solution, and 0.02% Triton X-100. The DNA template mixture for the wild type protein contained either 100 μM dNTP, 1 μM dNTP, or 0.1 μM dNTP, designated in Table 2 as 100 μM, 1 μM, and 0.1 μM, respectfully.
Microplates with compounds (0.1 μL in each well) to be tested in the assay were prepared from 10 mM compound stocks in 100% DMSO, and equal amounts of DMSO without any compound were added to positive and negative control wells.
The protein mixture was dispensed (5 μL into each well) into compound plates and incubated at 37° C. for 15 minutes. After incubation, 5 μL of the DNA template mixture was dispensed into each well. The plates were then incubated at 37° C. for 2 hours.
During incubation, a combined stop buffer and detection reagent solution was prepared. The buffer contained 25 mM EDTA (pH 8.0), 0.02% Triton X-100, and SYBR Green I [Invitrogen] diluted 10,000× (for fluorescent readout). EDTA will stop the enzymatic reaction by chelating magnesium ions.
Take `Cc1cc(S(=O)(=O)Nc2cccc(C(=O)N(C)C(C)CO)c2)c(C)cc1Cl` (single isomer, unassigned) [Example 14, 3-((4-chloro-2,5-dimethylphenyl)sulfonamido)-N-(1-hydroxypropan-2-yl)-N-methylbenzamide]: half-maximal activity (AC50) was put at 13 µM. Regarding `Cc1ccc(C)c(S(=O)(=O)Nc2cccc(C(=O)N3CCCCC3C#N)c2)c1` (centres unmarked) [Example 2, N-(3-(2-cyanopiperidine-1-carbonyl)phenyl)-2,5-dimethylbenzenesulfonamide], half-maximal activity (AC50) was put at 8 µM.

In turn, `Cc1ccc(C)c(S(=O)(=O)Nc2cccc(C(=O)N3CCCCC3)c2)c1` [Example 3, 2,5-dimethyl-N-(3-(piperidine-1-carbonyl)phenyl)benzene sulfonamide] returned an AC50 of 28 µM. For `Cc1ccc(C)c(S(=O)(=O)Nc2cccc(C(=O)NCC3CC3)c2)c1` [Example 4, N-(cyclopropylmethyl)-3-((2,5-dimethylphenyl)sulfonamido)benzamide] the value was 25 µM. The result for `Cc1ccc(C)c(S(=O)(=O)Nc2cccc(C(=O)N3CCCC[C@H]3C)c2)c1` [Example 5, (R)-2,5-dimethyl-N-(3-(2-methylpiperidine-1-carbonyl)phenyl)benzenesulfonamide] reads 11 µM; that for `Cc1ccc(C)c(S(=O)(=O)Nc2cccc(C(=O)N3CCCC[C@@H]3C)c2)c1` [Example 6, (S)-2,5-dimethyl-N-(3-(2-methylpiperidine-1-carbonyl)phenyl)benzenesulfonamide], 13 µM. The result for `Cc1ccc(C)c(S(=O)(=O)Nc2cccc(C(=O)N3CCOCC3C#N)c2)c1` (centres unmarked) [Example 7, N-(3-(3-cyanomorpholine-4-carbonyl)phenyl)-2,5-dimethylbenzenesulfonamide] reads 10 µM; that for `Cc1ccc(C)c(S(=O)(=O)Nc2cccc(C(=O)N[C@@H](C)C3CC3)c2)c1` [Example 8, (S)-N-(1-cyclopropylethyl)-3-((2,5-dimethylphenyl)sulfonamido)benzamide], 4 µM; that for `Cc1cc(S(=O)(=O)Nc2cccc(C(=O)N3CCCC[C@H]3C)c2)c(C)cc1Cl` [Example 9, (R)-4-chloro-2,5-dimethyl-N-(3-(2-methylpiperidine-1-carbonyl)phenyl)benzenesulfonamide], 2 µM. `Cc1cc(S(=O)(=O)Nc2cccc(C(=O)N3CCC[C@H]3C)c2)c(C)cc1Cl` [Example 10, (R)-4-chloro-2,5-dimethyl-N-(3-(2-methylpyrrolidine-1-carbonyl)phenyl)benzenesulfonamide]: the concentration at half-maximal activity (AC50) turned out to be 1 µM. The result for `Cc1cc(S(=O)(=O)Nc2cccc(C(=O)NCc3ccccc3)c2)c(C)cc1Cl` [Example 11, N-benzyl-3-((4-chloro-2,5-dimethylphenyl)sulfonamido)benzamide] reads 6 µM; that for `Cc1cc(S(=O)(=O)Nc2cccc(C(=O)N(C)C)c2)c(C)cc1Cl` [Example 12, 3-((4-chloro-2,5-dimethylphenyl)sulfonamido)-N,N-dimethylbenzamide], 3 µM. The result for `Cc1cc(S(=O)(=O)Nc2cc(F)cc(C(=O)N3CCC[C@H]3C)c2)c(C)cc1Cl` [Example 13, (R)-4-chloro-N-(3-fluoro-5-(2-methylpyrrolidine-1-carbonyl)phenyl)-2,5-dimethylbenzenesulfonamide] reads 3 µM.

For the compound `Cc1cc(S(=O)(=O)Nc2cccc(-c3nccs3)c2)c(C)cc1Cl` [Example 16, 4-chloro-2,5-dimethyl-N-(3-(thiazol-2-yl)phenyl)benzenesulfonamide], the AC50 stood at 2 µM. For `Cc1cc(S(=O)(=O)Nc2cccc(-c3ncco3)c2)c(C)cc1Cl` [Example 17, 4-chloro-2,5-dimethyl-N-(3-(oxazol-2-yl)phenyl)benzenesulfonamide] the value was 2 µM. For `Cc1cc(S(=O)(=O)Nc2cccc(-c3ccn(C)n3)c2)c(C)cc1Cl` [Example 18, 4-chloro-2,5-dimethyl-N-(3-(1-methyl-1H-pyrazol-3-yl)phenyl)benzenesulfonamide], the AC50 was determined as 5 µM.

As for `Cc1cc(S(=O)(=O)Nc2cccc(-c3nccn3C)c2)c(C)cc1Cl` [Example 19, 4-chloro-2,5-dimethyl-N-(3-(1-methyl-1H-imidazol-2-yl)phenyl)benzenesulfonamide], the AC50 was determined as 3 µM.

Take `Cc1cc(S(=O)(=O)Nc2cccc(-c3ncc(C#N)s3)c2)c(C)cc1Cl` [Example 96, 4-chloro-N-(3-(5-cyanothiazol-2-yl)phenyl)-2,5-dimethylbenzenesulfonamide]: the AC50 was > 100 µM. The result for `Cc1cnc(-c2ccc(C)c(NS(=O)(=O)c3cc(C)c(Cl)cc3C)c2)s1` [Example 98, 4-chloro-2,5-dimethyl-N-(2-methyl-5-(5-methylthiazol-2-yl)phenyl)benzenesulfonamide] reads > 100 µM; that for `Cc1cnc(-c2ccc(Cl)c(NS(=O)(=O)c3cc(C)c(Cl)cc3C)c2)s1` [Example 102, 4-chloro-N-(2-chloro-5-(5-methylthiazol-2-yl)phenyl)-2,5-dimethylbenzenesulfonamide], > 100 µM. For `Cc1cnc(-c2cc(NS(=O)(=O)c3cc(C)c(Cl)cc3C)ccc2C)s1` [Example 103, 4-chloro-2,5-dimethyl-N-(4-methyl-3-(5-methylthiazol-2-yl)phenyl)benzenesulfonamide] the value was 58 µM; for `Cc1cc(S(=O)(=O)Nc2ccc3c(c2)CC(=O)N3)c(C)cc1Cl` [Example 185, 4-chloro-2,5-dimethyl-N-(2-oxoindolin-5-yl)benzenesulfonamide], 8 µM. In turn, “(R)-2,5-dimethyl-N-(3-(3-methylmorpholine-4-carbonyl)phenyl)benzenesulfonamide [Example 1]” registered an AC50 of 12 µM.

For the origin of these results see patent publication US20260138961A1, “MODULATORS OF MITOCHONDRIAL DNA REPLICATION” (Pretzel Therapeutics, Inc., priority 2022, published 2026).
